Key:
[1] = system: Escherichia coli; assay: Antimicrobial activity against Escherichia coli ATCC 25922 after 24 hrs by NCCLS-protocol based assay; type: functional; settings: ATCC 25922, 24 h
[2] = system: Escherichia coli; assay: Antimicrobial activity against Escherichia coli UB1005 after 24 hrs by NCCLS-protocol based assay; type: functional; settings: UB1005, 24 h
[3] = system: Escherichia coli; assay: Antimicrobial activity against Escherichia coli 078 after 24 hrs by NCCLS-protocol based assay; type: functional; settings: Escherichia coli, 078, 24 h
[4] = system: Escherichia coli; assay: Antimicrobial activity against Escherichia coli K88 after 24 hrs by NCCLS-protocol based assay; type: functional; settings: K88, 24 h
[5] = system: Escherichia coli; assay: Antimicrobial activity against Escherichia coli K99 after 24 hrs by NCCLS-protocol based assay; type: functional; settings: K99, 24 h
[6] = system: Pseudomonas aeruginosa; assay: Antimicrobial activity against Pseudomonas aeruginosa ATCC 27853 after 24 hrs by NCCLS-protocol based assay; type: functional; settings: ATCC 27853, 24 h
[7] = system: Pseudomonas aeruginosa; assay: Antimicrobial activity against Pseudomonas aeruginosa PAO1 after 24 hrs by NCCLS-protocol based assay; type: functional; settings: PAO1, 24 h
[8] = system: Pseudomonas aeruginosa; assay: Antimicrobial activity against Pseudomonas aeruginosa CICC 21630 clinical isolates after 24 hrs by NCCLS-protocol based assay; type: functional; settings: CICC 21630, 24 h
[9] = system: Pseudomonas aeruginosa; assay: Antimicrobial activity against Pseudomonas aeruginosa 26305 clinical isolates after 24 hrs by NCCLS-protocol based assay; type: functional; settings: Pseudomonas aeruginosa, 26305, 24 h
[10] = system: Pseudomonas aeruginosa; assay: Antimicrobial activity against Pseudomonas aeruginosa CICC 21625 clinical isolates after 24 hrs by NCCLS-protocol based assay; type: functional; settings: CICC 21625, 24 h
[11] = system: Pseudomonas aeruginosa; assay: Antimicrobial activity against Pseudomonas aeruginosa 25349 clinical isolates after 24 hrs by NCCLS-protocol based assay; type: functional; settings: Pseudomonas aeruginosa, 25349, 24 h
[12] = system: Salmonella typhimurium; assay: Antimicrobial activity against Salmonella typhimurium ATCC 14028 after 24 hrs by NCCLS-protocol based assay; type: functional, Salmonella enterica subsp. enterica serovar Typhimurium; settings: Salmonella enterica, ATCC 14028, 24 h
[13] = system: Salmonella typhimurium; assay: Antimicrobial activity against Salmonella typhimurium C7731 after 24 hrs by NCCLS-protocol based assay; type: functional, Salmonella enterica subsp. enterica serovar Typhimurium; settings: Salmonella enterica, C7731, 24 h
[14] = Antimicrobial activity against Salmonella pullorum C7913 after 24 hrs by NCCLS-protocol based assay; type: functional, Salmonella enterica subsp. enterica serovar Pullorum; settings: Salmonella enterica, C7913, 24 h
[15] = system: Acinetobacter baumannii; assay: Antimicrobial activity against Acinetobacter baumannii after 24 hrs by NCCLS-protocol based assay; type: functional
[16] = system: Klebsiella pneumoniae; assay: Antimicrobial activity against Klebsiella pneumoniae after 24 hrs by NCCLS-protocol based assay; type: functional
[17] = system: Escherichia coli; assay: Bactericidal activity against Escherichia coli ATCC 25922 incubated for 4 hrs followed by culture spread on agar plates and cultured overnight; type: functional; settings: ATCC 25922, 4 h, read-out: MBC>99.9
[18] = system: Escherichia coli; assay: Bactericidal activity against Escherichia coli UB1005 incubated for 4 hrs followed by culture spread on agar plates and cultured overnight; type: functional; settings: UB1005, 4 h, read-out: MBC>99.9
[19] = system: Escherichia coli; assay: Bactericidal activity against Escherichia coli 078 incubated for 4 hrs followed by culture spread on agar plates and cultured overnight; type: functional; settings: Escherichia coli, 078, 4 h; read-out: MBC>99.9
[20] = system: Escherichia coli; assay: Bactericidal activity against Escherichia coli K88 incubated for 4 hrs followed by culture spread on agar plates and cultured overnight; type: functional; settings: K88, 4 h, read-out: MBC>99.9
[21] = system: Escherichia coli; assay: Bactericidal activity against Escherichia coli K99 incubated for 4 hrs followed by culture spread on agar plates and cultured overnight; type: functional; settings: K99, 4 h, read-out: MBC>99.9
[22] = system: Pseudomonas aeruginosa; assay: Bactericidal activity against Pseudomonas aeruginosa ATCC 27853 incubated for 4 hrs followed by culture spread on agar plates and cultured overnight; type: functional; settings: ATCC 27853, 4 h, read-out: MBC>99.9
[23] = system: Pseudomonas aeruginosa; assay: Bactericidal activity against Pseudomonas aeruginosa PAO1 incubated for 4 hrs followed by culture spread on agar plates and cultured overnight; type: functional; settings: PAO1, 4 h, read-out: MBC>99.9
[24] = system: Pseudomonas aeruginosa; assay: Bactericidal activity against Pseudomonas aeruginosa CICC 21630 clinical isolates incubated for 4 hrs followed by culture spread on agar plates and cultured overnight; type: functional; settings: CICC 21630, 4 h, read-out: MBC>99.9
[25] = system: Pseudomonas aeruginosa; assay: Bactericidal activity against Pseudomonas aeruginosa 26305 clinical isolates incubated for 4 hrs followed by culture spread on agar plates and cultured overnight; type: functional; settings: Pseudomonas aeruginosa, 26305, 4 h; read-out: MBC>99.9
[26] = system: Pseudomonas aeruginosa; assay: Bactericidal activity against Pseudomonas aeruginosa CICC 21625 clinical isolates incubated for 4 hrs followed by culture spread on agar plates and cultured overnight; type: functional; settings: CICC 21625, 4 h, read-out: MBC>99.9
[27] = system: Pseudomonas aeruginosa; assay: Bactericidal activity against Pseudomonas aeruginosa 25349 clinical isolates incubated for 4 hrs followed by culture spread on agar plates and cultured overnight; type: functional; settings: Pseudomonas aeruginosa, 25349, 4 h; read-out: MBC>99.9
[28] = system: Salmonella typhimurium; assay: Bactericidal activity against Salmonella typhimurium ATCC 14028 incubated for 4 hrs followed by culture spread on agar plates and cultured overnight; type: functional, Salmonella enterica subsp. enterica serovar Typhimurium; settings: Salmonella enterica, ATCC 14028, 4 h; read-out: MBC>99.9
[29] = system: Salmonella typhimurium; assay: Bactericidal activity against Salmonella typhimurium C7731 incubated for 4 hrs followed by culture spread on agar plates and cultured overnight; type: functional, Salmonella enterica subsp. enterica serovar Typhimurium; settings: Salmonella enterica, C7731, 4 h; read-out: MBC>99.9
[30] = Bactericidal activity against Salmonella pullorum C7913 incubated for 4 hrs followed by culture spread on agar plates and cultured overnight; type: functional, Salmonella enterica subsp. enterica serovar Pullorum; settings: Salmonella enterica, C7913, 4 h; read-out: MBC>99.9
[31] = system: Acinetobacter baumannii; assay: Bactericidal activity against Acinetobacter baumannii incubated for 4 hrs followed by culture spread on agar plates and cultured overnight; type: functional; settings: read-out: MBC>99.9
[32] = system: Klebsiella pneumoniae; assay: Bactericidal activity against Klebsiella pneumoniae incubated for 4 hrs followed by culture spread on agar plates and cultured overnight; type: functional; settings: read-out: MBC>99.9

Substance	MIC95 [1]	MIC95 [2]	MIC95 [3]	MIC95 [4]	MIC95 [5]	MIC95 [6]	MIC95 [7]	MIC95 [8]	MIC95 [9]	MIC95 [10]	MIC95 [11]	MIC95 [12]	MIC95 [13]	MIC95 [14]	MIC95 [15]	MIC95 [16]	MBC [17]	MBC [18]	MBC [19]	MBC [20]	further results
H-LKPLLKPLLKPLLKPL-NH2	16 µM	16 µM	32 µM	16 µM	16 µM	> 64 µM	> 64 µM	> 64 µM	> 64 µM	> 64 µM	> 64 µM	> 64 µM	> 64 µM	32 µM	4 µM	> 64 µM	32 µM	64 µM	64 µM	16 µM	MBC [21]: 32 µM; MBC [22]: > 64 µM; MBC [23]: > 64 µM; MBC [24]: > 64 µM; MBC [25]: > 64 µM; MBC [26]: > 64 µM; MBC [27]: > 64 µM; MBC [28]: > 64 µM; MBC [29]: > 64 µM; MBC [30]: 64 µM; MBC [31]: 8 µM; MBC [32]: > 64 µM
H-LKPLLKPLLKPLLKPLLKPL-NH2	2 µM	2 µM	4 µM	2 µM	2 µM	16 µM	> 64 µM	32 µM	32 µM	> 64 µM	32 µM	8 µM	16 µM	4 µM	4 µM	32 µM	4 µM	8 µM	8 µM	2 µM	MBC [21]: 4 µM; MBC [22]: 16 µM; MBC [23]: > 64 µM; MBC [24]: 64 µM; MBC [25]: 64 µM; MBC [26]: > 64 µM; MBC [27]: 64 µM; MBC [28]: 16 µM; MBC [29]: 16 µM; MBC [30]: 8 µM; MBC [31]: 4 µM; MBC [32]: 64 µM
H-VKPVVKPVVKPVVKPVVKPVVKPVVKPV-NH2	> 64 µM	> 64 µM	> 64 µM	> 64 µM	> 64 µM	> 64 µM	> 64 µM	> 64 µM	> 64 µM	> 64 µM	> 64 µM	> 64 µM	> 64 µM	> 64 µM	> 64 µM	> 64 µM	> 64 µM	> 64 µM	> 64 µM	> 64 µM	MBC [21]: > 64 µM; MBC [22]: > 64 µM; MBC [23]: > 64 µM; MBC [24]: > 64 µM; MBC [25]: > 64 µM; MBC [26]: > 64 µM; MBC [27]: > 64 µM; MBC [28]: > 64 µM; MBC [29]: > 64 µM; MBC [30]: > 64 µM; MBC [31]: > 64 µM; MBC [32]: > 64 µM
H-IKPIIKPIIKPIIKPIIKPI-NH2	> 64 µM	> 64 µM	> 64 µM	> 64 µM	> 64 µM	> 64 µM	> 64 µM	> 64 µM	> 64 µM	> 64 µM	> 64 µM	> 64 µM	> 64 µM	> 64 µM	> 64 µM	> 64 µM	> 64 µM	> 64 µM	> 64 µM	> 64 µM	MBC [21]: > 64 µM; MBC [22]: > 64 µM; MBC [23]: > 64 µM; MBC [24]: > 64 µM; MBC [25]: > 64 µM; MBC [26]: > 64 µM; MBC [27]: > 64 µM; MBC [28]: > 64 µM; MBC [29]: > 64 µM; MBC [30]: > 64 µM; MBC [31]: > 64 µM; MBC [32]: > 64 µM
H-LRPLLRPLLRPLLRPLLRPLLRPLLRPLLRPL-NH2	2 µM	2 µM	1 µM	1 µM	1 µM	2 µM	2 µM	4 µM	2 µM	8 µM	2 µM	2 µM	2 µM	1 µM	1 µM	2 µM	2 µM	4 µM	2 µM	1 µM	MBC [21]: 2 µM; MBC [22]: 4 µM; MBC [23]: 4 µM; MBC [24]: 4 µM; MBC [25]: 4 µM; MBC [26]: 8 µM; MBC [27]: 4 µM; MBC [28]: 4 µM; MBC [29]: 4 µM; MBC [30]: 2 µM; MBC [31]: 1 µM; MBC [32]: 4 µM

— ChEMBL document CHEMBL4316596, “Antimicrobial Peptides with High Proteolytic Resistance for Combating Gram-Negative Bacteria” (J Med Chem, 2019)
